In PMC6412891, “Synthesis and Biological Evaluation of Novel Thiazolyl-Coumarin Derivatives as Potent Histone Deacetylase Inhibitors with Antifibrotic Activity” (Molecules, 2019):

Experiments:
α-SMA expression in CFs = assay: α-SMA expression levels in cardiac fibroblasts, western blot; format: cell-based, rat; details: for α-SMA expression levels: 5 μM for 48 h, absence of TGF-β1, vs. control; for α-SMA expression levels induced by TGF-β1: derivatives 5 μM (TSA 0.1 μM) for 48 h in presence of TGF-β1
Experimental: For this purpose, a fixed concentration of 5a, 6a, 7a and 8a derivatives in the presence/absence of TGF–β1 (a strong inducer of CFs–to–CMFs differentiation), was studied, and α–SMA expression levels were measured by using the western blot technique. TSA was used as a control and also for comparative purposes.
For the analysis of the protein expression of histone H4–acetylated (ac–H4) and total H4 histone, a number of 1 × 10^6 of CFs seeded in 60 mm plates was used, which were incubated with the inhibitory compounds at a concentration of 10 μM, in the absence/presence of TGF–β1(5ng/mL) for 4 h. Subsequently, total histones were extracted by the technique of saline precipitation (high salt extraction). Briefly, CFs were scraped from the plates with 1 mL of cold PBS transferring their contents to Eppendorf tubes to be centrifuged for 60 s at 1500 rpm at 4 °C and re–suspended in 400 μL of cold buffer A (10 mM 4-(2-hydroxyethyl)-1-piperazineethanesulfonic acid-KOH (HEPES-KOH) adjusted to pH 7.9, 1.5 mM MgCl2, 10 mM KCl, 0.5 mM dithiothreitol and 0.2 mM phenylmethylsulfonyl fluoride (PMSF). The suspension is left on ice for 10 min and then placed in the vortex for 10 s. The samples were centrifuged for 60 s, subsequently discarding the supernatant fraction. The obtained pellet was re-suspended in 60 μL of cold C buffer (20 mM HEPES-KOH adjusted to pH 7.9, 25% glycerol, 420 mM NaCl, 1.5 mM MgCl2, 0.2 mM EDTA, dithiothreitol 0.5 mM and 0.2 mM PMSF) and placed on ice for 20 min for saline precipitation. Cell debris is removed by centrifugation for 120 s at 1500 rpm at 4 °C and the supernatant fraction, which contains the DNA binding proteins, is stored at minus 20 °C. For the analysis of α–SMA and procollagen type I expression levels, 3×10^5 CFs seeded in 35 mm plates were used, which were incubated together with inhibitor compounds at a 5 μM, in the absence/presence of TGF–β1 (5 ng/mL) for 48 h. To obtain the total proteins, the CFs were washed three times with cold PBS, then scraped and lysed with 50 μL of radio inmuno-precipitation assay (RIPA) lysis buffer (10 mM Tris–HCl pH 7.2, 5 mM EDTA, 150 mM NaCl, Triton X–100 1%, sodium dodecyl sulfate (SDS) 0.1%, deoxycholate 1%, leupeptin 2 μg/mL, aprotinin 10mM, PMSF 1mM and Na3VO4 100μM). The solution was centrifuged for 15 min at 10,000 rpm and at 4 °C. The supernatant fraction containing the total proteins was stored at minus 20 °C. The concentration of proteins obtained was determined by spectrophotometry at 570 nm, using the Bradford method (Bio-Rad, Hercules, CA, USA).
CFs proteins (25 μg), were subjected to 10% sodium dodecyl sulfate-polyacrylamide gel electrophoresis and finally transferred onto a nitrocellulose membrane (Millipore, Billerica, MA, USA). The membrane was washed twice with tris–buffered saline solution containing 0.1% Tween 20 (TBST). After being blocked with TBST containing 5% nonfat milk for 40 min, the membrane was incubated with primary antibodies in TBST/1% nonfat milk at 4 °C overnight. The membrane was washed three times with TBST for a total of 15 min and then incubated with primary antibodies (ac–H4, H4 total, α-SMA, procollagen type I and GAPDH). Then the membrane was incubated with goat anti–rabbit or anti-mouse IgG antibodies conjugated with horseradish (diluted 1:1000) for 1 h at room temperature. Signals were developed with ECL reagents and exposure to photographic film.
Figure 4 CTz non–substituted inhibit α-SMA expression in cardiac fibroblasts. (A) CFs were exposed to 5a, 6a, 7a and 8a at 5 μM for 48 h. […] (B) CFs were exposed to 5a, 6a, 7a and 8a at 5 μM for 48 h in presence of TGF–β1 ([…]). α-SMA expression levels were measured by western blot. GAPDH was used as control load.

SMILES | α-SMA expression levels (α-SMA expression in CFs) | α-SMA expression levels induced by TGF-β1 (α-SMA expression in CFs) | melting point
O=C(Nc1nc(-c2cc3ccccc3oc2=O)cs1)c1ccc(O)c(O)c1 [Compound 6a] | decreased in a statistically significant manner | decrease close to control levels | 
O=C(O)CCCCC(=O)Nc1nc(-c2cc3ccccc3oc2=O)cs1 [Compound 7a] | had no effect |  | 
O=C(CCCCC(=O)Nc1nc(-c2cc3ccccc3oc2=O)cs1)NO [Compound 8a, 5-[4-(2-Oxo-2H-chromen-3-yl)-thiazol-2-yl-carbamoyl]-N-hydroxypentanamide] | decreased in a statistically significant manner | decrease close to control levels | 150 to 152 °C (dec.)
O=C(CCCCC1CCSS1)Nc1nc(-c2cc3ccccc3oc2=O)cs1 (stereo not drawn) [Compound 5a, 5-[1,2]-Dithiolan-3-yl-N-[4-(2-oxo-2H-chromen-3-yl)-thiazol-2-yl]-pentanamide] | decreased in a statistically significant manner | decrease close to control levels | 91 to 92 °C
